Experimental data taken from paper PMC11149917, “Translational and Therapeutic Evaluation of RAS-GTP Inhibition by RMC-6236 in RAS-Driven Cancers” (Cancer Discovery, 2024).

How the values were obtained:
[1] = test system: KRAS^G12V and KRAS^G12D xenograft models (NSCLC, PDAC, colorectal cancer); experiment: Mouse clinical trial (MCT), genotype subsets; type: in vivo
Method: (§1) To generate subcutaneous CDX, each mouse was inoculated at the right flank with tumor cells (2 × 10^6 − 1 × 10^7) in 100 to 200 µL of media/PBS Supplemented with Matrigel. Treatments were initiated when average tumor volume reached 130 to 200 mm^3 for tumor growth evaluation and 350 to 650 mm^3 for single-dose pharmacokinetic/pharmacodynamic (PK/PD). Tumor diameter was measured in two dimensions using a digital caliper, and the tumor volume in mm^3 was calculated using the formula: Volume = ((width)^2 × length)/2. Mice in the study were weighed and tumors were measured twice weekly.
The human primary cancer PDX models were generated using fresh tumor fragments obtained from the hospital with written informed consent from patients in accordance with protocols approved by the Hospital's Institutional Ethical Committee. Tumor fragments were subcutaneously serial passaged in immunodeficient mice and cryopreserved for further use. Recovered tumor fragments were implanted into the right flanks of immunodeficient mice; treatment started when the average tumor volume reached 150 to 350 mm^3.
Tumor-bearing animals were randomized and assigned into groups (n = 1–10/group). The vehicle at 10 mL/kg or RMC-6236 at indicated doses was administered via oral gavage daily, and animals were treated for 28 days, or up to 90 days if PFS was being assessed. […] For single-dose PKPD study, mice were randomized and assigned into groups (n = 3/dose/time point). A single dose of RMC-6236 was administered orally at either 3, 10, or 25 mg/kg. Blood and tissues, including the tumor, brain, colon, ear skin, and muscle, were harvested at indicated time points. Whole blood was collected in K2EDTA Microtainer tubes, incubated for 5 minutes, and snap-frozen in liquid nitrogen. The tissue was either fixed in 10% formalin or snap-frozen in liquid nitrogen for further analysis.
(§2) In tumor volume plots, the average tumor volume of each group was plotted over the course after implantation (except for PDX models, where the x-axis started on the first day of treatment). Control and RMC-6236 groups were compared by two-way repeated-measures ANOVA on the last measurement day of the control group. Percentage change in body weight for each animal on a given day was determined as [(body weight on test article administration end date/body weight on test article administration start date) −1] × 100. The percentage mean tumor volume change from baseline was graphed in the waterfall plots. The mRECIST score was determined based on % mean tumor volume change, mCR is more than 80% regression, mPR is between 30% and 80% regression, mSD is between 30% growth and 30% regression, mPD is more than 30% growth. Progression is defined as tumor volume doubling from baseline and represented with Kaplan–Meier plots. […]

[2] = Tolerability by body weight change in xenograft studies; type: in vivo, mouse; details: repeated oral administration
Method: as §1
as §2, with “The percentage mean tumor volume change from baseline was graphed in the waterfall plots.” left out, “growth.” for “growth. Progression is defined as tumor volume doubling from baseline and represented with Kaplan–Meier plots.”

CC3 in ear skin = experiment: IHC whole-slide quantification; type: in vivo, mouse; details: control 2.2
Method: (§3) All tissues were fixed for up to 24 hours using 10% neutral buffered formalin and then moved to 70% ethanol for long-term storage. FFPE sections (4 µm) were stained on the Biocare intelliPATH automated staining platform using the manufacturer’s recommended settings.
(§4) All tissue sections were incubated with Biocare Peroxidase Blocker (Biocare, cat no. PX968) and Background Punisher (Biocare, cat no. BP974M) to block nonspecific background. MACH4 HRP-polymer Detection System (Biocare, cat no. MRH534) was used to detect rabbit primary antibodies.
(§5) DAB-stained slides were scanned and digitized with a Huron TissueScope LE120 whole-slide scanner at 200× magnification.

CC3 in colon = experiment: IHC whole-slide quantification; type: in vivo, mouse; details: control 0.318
Method: as §3, §4, §5

[3] = test system: pERK in Capan-2 xenograft tumors; experiment: IHC whole-slide quantification; type: in vivo, mouse; details: for pERK (% positive area): control 32.3
Method: as §3
Anti–phospho-p44/42 MAPK (Erk1/2; Thr202/Tyr204) rabbit monoclonal antibody (Cell Signaling Technology, cat no. 4370, clone: D13.14.4E) was used at 1:200 with citrate-based pH 6.2 heat-induced epitope retrieval; an isotype control (rabbit IgG) was used under the same conditions.
as §4, §5
The EpCAM staining was used to identify epithelial cells. First, the area to be analyzed was delineated, excluding necrotic regions. The random forest tumor classifier from the HALO Image Analysis package was used to identify the tumor compartment. Three classes were created: glass, tumor (EpCAM-positive), and stroma. The tumor class mark was then copied onto the serial sections stained with various markers to perform the image analysis only on the tumor compartment.
Quantification of P-ERK and pS6 was performed with the HALO Image Analysis software from Indica labs using the Area Quantification module. The analysis was performed only on the tumor compartment copied from the EpCAM slide. The software was tuned to detect positive DAB staining (brown color). Percentage of area positivity was chosen to represent the results (area positive for brown/total area); and subjected to statistical analysis using GraphPad Prism (Dunnett multiple comparisons test).

[4] = 21 KRAS^G12V models, 25 mg/kg daily

CCn1c(-c2cc(N3CCN(C)CC3)cnc2[C@H](C)OC)c2c3cc(ccc31)-c1csc(n1)C[C@H](NC(=O)[C@H]1C[C@@H]1C)C(=O)N1CCC[C@H](N1)C(=O)OCC(C)(C)C2 [RMC-6236]
Cox Proportional Hazard Ratio, PFS of KRAS^G12V vs KRAS^G12D models on RMC-6236 ([1]; 25 mg/kg daily up to 90 days, 95% interval 0.069–0.454): 0.178
disease control rate (DCR), mRECIST [1, 4]: 95%
overall response rate (ORR), mRECIST [1, 4]: 71%
models with tumor relapse on long-term dosing (more than 60 days) ([1]; models mPR or mCR at response calling date, NSCLC, PDAC, colorectal cancer): 5 of 20
tolerability assessed by body weight change [2]: tolerated at all dose levels and in all preclinical models evaluated
CC3 (% positive cells) (CC3 in ear skin; Ear Skin (25 mg/kg x7d), 8h): 2.0%
CC3 (% positive cells) (CC3 in ear skin; Ear Skin (25 mg/kg x7d), 24h): 1.5%
CC3 (% positive cells) (CC3 in ear skin; Ear Skin (25 mg/kg x7d), 48hr): 1.5%
CC3 (% positive cells) (CC3 in ear skin; Ear Skin (25 mg/kg), 8h): 2.4%
CC3 (% positive cells) (CC3 in ear skin; Ear Skin (25 mg/kg), 24h): 1.5%
CC3 (% positive cells) (CC3 in ear skin; Ear Skin (25 mg/kg), 48hr): 1.3%
CC3 (% positive cells) (CC3 in colon; Colon (25 mg/kg ), 8h): 0.0833%
CC3 (% positive cells) (CC3 in colon; Colon (25 mg/kg ), 24h): 0.237%
CC3 (% positive cells) (CC3 in colon; Colon (25 mg/kg ), 48hr): 0.4%
CC3 (% positive cells) (CC3 in colon; Colon (25 mg/kg x 7d), 8h): 0.177%
CC3 (% positive cells) (CC3 in colon; Colon (25 mg/kg x 7d), 24h): 0.277%
CC3 (% positive cells) (CC3 in colon; Colon (25 mg/kg x 7d), 48hr): 0.143%
pERK (% positive area) ([3]; Capan-2 (3 mg/kg), 8h): 7.6%
pERK (% positive area) ([3]; Capan-2 (3 mg/kg), 24h): 14.0%
pERK (% positive area) ([3]; Capan-2 (3 mg/kg), 48hr): 17.6%
pERK (% positive area) ([3]; Capan-2 (10 mg/kg), 8h): 2.8%
pERK (% positive area) ([3]; Capan-2 (10 mg/kg), 24h): 3.7%
pERK (% positive area) ([3]; Capan-2 (10 mg/kg), 48hr): 14.3%
pERK (% positive area) ([3]; Capan-2 (25 mg/kg x 7d), 8h): 4.4%
pERK (% positive area) ([3]; Capan-2 (25 mg/kg x 7d), 24h): 9.2%
pERK (% positive area) ([3]; Capan-2 (25 mg/kg x 7d), 48hr): 18.9%
pERK (% positive area) ([3]; Capan-2 (25 mg/kg), 8h): 3.1%
pERK (% positive area) ([3]; Capan-2 (25 mg/kg), 24h): 6.3%
pERK (% positive area) ([3]; Capan-2 (25 mg/kg), 48hr): 14.8%
inhibition at 25 mg/kg ([3]; Mus musculus, Capan-2, 25 mg/kg, up to 24 hours post-dose, read-out: inhibition of pERK levels in tumors (IHC)): > 80%
